Results taken from patent US5716950A, “Diazacycloalkanealkylsulfonamide derivatives” (Nippon Shoji Kabushiki Kaisha, priority 1994, dated 1998).
Where two headings read alike, the source gives them in different places.

Assays:
[1] = tested on: mouse biphasic allergic dermal reaction; experiment: Mouse Biphasic Allergic Dermal Reaction; assay type: in vivo, Female Balb/c mice; details: for inhibition in vivo at 3 mg/kg / inhibition in vivo at 10 mg/kg / inhibition in vivo at 30 mg/kg / inhibition in vivo at 0.1 mg/kg / inhibition in vivo at 1 mg/kg: Mus musculus; for suppression of the immediate allergic reaction (in words): edema after 1 hour; for suppression of the late allergic reaction (in words): edema after 24 hours
Method: Female Balb/c mice (weighing 18 to 25 g) were subjected to passive sensitization by intravenous administration of 1 ml of anti-DNP monoclonal IgE antibody showing 1:1024 of antibody titer. 24 hours after the sensitization, 25 μl of 0.15% dinitrofluorobenzene (DNFB) were applied to both sides of right and left auricles of mouse for inducing allergic reactions. Thickness of auricles were measured using Dial Thickness Gauge before the challenge with DNFB, and 1 and 24 hours after the challenge. And then, increase in thickness of auricles at 1 hour after the challenge (edema caused by immediate allergic reaction) and that at 24 hours after the challenge (edema caused by late allergic reaction) were calculated against the thickness of auricles before the challenge with DNFB, respectively.
Suppression rate was expressed by relative ratio (%) to the value in control in which a solvent was administered.
Test compounds, diphenhydramine which is a existing classical antihistamic drug, amlexanox which is an antiallergic drug and dexamethasone which is a steroidal drug were administered orally (partly intraperitoneally) once before antigen challenge.
The above test was performed by using a mouse biphasic allergic dermal reaction model which was a new model [see, Sakurai T, Inagaki, N. and Nagai, H Life Sci., 54, PL291-295 (1994)]. In this model, the immediate allergic reaction was induced by mediator release from mast cell at 1 hour after the challenge, and the late allergic reaction with inflammatory cells such as eosinophil (edema after 24 hours) was induced after 24 hours from the challenge.

[2] = tested on: passive cutaneous anaphylaxis (PCA); experiment: Activity of suppressing passive cutaneous anaphylaxis (PCA); assay type: in vivo, Male Wistar rats
Method: Test compounds were examined on their antiallergic activities. […] After 48 hours, 1.0 ml of 0.5 % Evans Blue saline solution containing DNP.BSA (1 mg in protein) was injected through the tail vein to induce allergic reaction. After 30 minutes, the rats were sacrificed by bleeding and the skin of back where dye was leaked out was flayed and put it into 20 ml test tube with ground stopper. Thereto was added 1.0 ml of 1N KOH aqueous solution and then it was allowed to stand at 37° C. in incubator overnight for lysing. To this solution was added 8.3 ml of a mixture of acetone and 0.6N phosphoric acid (13:5) and the mixture was mixed well and then was filtered to remove the insoluble materials.
The test compounds were administered orally 1 hour before the antigen challenge. Suppression rate was expressed by percentage to the value in control where 0.5% aqueous methylcellulose solution was orally administered.

[3] = tested on: extracted ileum (histamine contraction); experiment: Antihistaminic activity: suppression of histamine-induced contraction of extracted ileum; design: species or system Female Hartley guinea pig; details: histamine 3×10^-7 M; guinea pig ileum; 50% suppression of contraction; read-out: anti-His in extracted ileum EC50
Method: Female Hartley guinea pig (weighing 500 to 650 g) were sacrificed and the ileum (length of about 10 to 25 cm) was extracted from the ileocecum to prepare a specimen (length of 3 cm). […] After allowing to stand for 60 minutes to make the specimen stable, a histamine (3×10^-7 M) was applied to the specimen at single application. Contraction of the specimen was determined and recorded using isotonic transducer. After repeating application of a histamine to make the contraction constant, a diluted solution of the test compound was applied. Three minutes after the application, a histamine was then added and an activity of suppressing contraction was examined.

male ICR mice = experiment: Toxicity Test (mouse acute toxicity, minimum lethal dose); assay type: in vivo; details: po, observed for 24 hours, head prints (10 mg/kg-po)
Source text: The test compounds were orally administered to male ICR mice (weighing to 30 g) after fasting overnight. […] The results were expressed by minimum lethal dose. Toxicity of any compounds of the present invention were weaker than that of ketotifen which was a reference compound.

[4] = Rattus norvegicus, po, 1 h, 10 mg/kg-po, 1 hour before antigen challenge, read-out: % suppression of rat PCA
[5] = po, 1 h, read-out: immediate edema (1 hr) suppression (%)
[6] = po, 24 h, read-out: late edema (24 hr) suppression (%)
[7] = 1 h, 1.0 mg/kg, oral, read-out: immediate edema (1 hr) suppression (%)
[8] = 24 h, 0.1 mg/kg, oral, read-out: late edema (24 hr) suppression (%)
[9] = 24 h, 1.0 mg/kg, oral, read-out: late edema (24 hr) suppression (%)

| Compound | inhibition in vivo at 10 mg/kg [2, 4] [%] | EC50 [3] [nM] | also measured |
| --- | --- | --- | --- |
| CN(C)CCOC(c1ccccc1)c1ccccc1 [diphenhydramine, reference compound] |  |  | inhibition in vivo at 3 mg/kg ([1]; 1 h, 3.0 mg/kg, oral, read-out: immediate edema (1 hr) suppression (%)): 17.8%; inhibition in vivo at 10 mg/kg ([1]; 1 h, 10.0 mg/kg, oral, read-out: immediate edema (1 hr) suppression (%)): 13.3%; inhibition in vivo at 30 mg/kg ([1]; 1 h, 30.0 mg/kg, oral, read-out: immediate edema (1 hr) suppression (%)): 53.3%; inhibition in vivo at 30 mg/kg ([1]; 24 h, 30.0 mg/kg, oral, read-out: late edema (24 hr) suppression (%)): 14.3%; suppression of the immediate allergic reaction (in words) [1]: suppressed the immediate allergic reaction; suppression of the late allergic reaction (in words) [1]: did not suppress the late allergic reaction |
| CN(C)S(=O)(=O)CCCCCCN1CCN(C(c2ccccc2)c2ccc(F)cc2)CC1 (stereo not shown) [Example 68] | 94.5 | 370 |  |
| CCNS(=O)(=O)CCCCCCCN1CCN(C(c2ccccc2)c2ccc(Cl)cc2)CC1 (stereo not shown) [Example 107] | 87.8 | 620 |  |
| O=S(=O)(CCCCCCN1CCN(C(c2ccccc2)c2ccccc2)CC1)NC1CCCCC1 [Example 149] | 97.7 | 310 |  |
| O=S(=O)(O)CCCCN1CCN(C(c2ccc(F)cc2)c2ccccn2)CC1 (stereo not shown) [Ref. Ex. 4, 4-[4-[4-fluorophenyl-(2-pyridyl)methyl]-1-piperazinyl]butylsulfonic acid, reference compound] | 0 |  | antiallergic activity / activity of suppressing PCA (in words) ([2]; rat, in vivo): did not show an antiallergic activity |
| O=S(=O)(CCCCCCN1CCN(C(c2ccccc2)c2ccccc2)CC1)NC1CCC1 [Example 134] | 87.1 | 580 |  |
| CC(C)c1ccc2oc3nc(N)c(C(=O)O)cc3c(=O)c2c1 [amlexanox, reference compound] |  |  | inhibition in vivo at 3 mg/kg [1, 5]: 38.5%; inhibition in vivo at 10 mg/kg [1, 5]: 38.5%; inhibition in vivo at 30 mg/kg [1, 5]: 50%; inhibition in vivo at 3 mg/kg [1, 6]: 12.1%; inhibition in vivo at 30 mg/kg [1, 6]: 6.1%; suppression of the immediate allergic reaction (in words) [1]: suppressed the immediate allergic reaction; suppression of the late allergic reaction (in words) [1]: did not suppress the late allergic reaction |
| NS(=O)(=O)CCCCCCN1CCN(C(c2ccccc2)c2ccc(Cl)cc2)CC1 (stereo not shown) [Example 153, potassium 6-[[4-(4-chlorophenyl)phenylmethyl]-1-piperazinyl]hexylsulfonamide] |  |  | % suppression of rat PCA ([2]; 10 mg/kg-po, 1 hour before antigen challenge): 86.2%; mouse acute toxicity (lethal dose) (male ICR mice): > 500 mg/kg; inhibition in vivo at 0.1 mg/kg ([1]; 1 h, 0.1 mg/kg, oral, read-out: immediate edema (1 hr) suppression (%)): 24%; inhibition in vivo at 1 mg/kg [1, 7]: 56%; inhibition in vivo at 0.1 mg/kg [1, 8]: 24%; inhibition in vivo at 1 mg/kg [1, 9]: 48% |
| CNS(=O)(=O)CCCCCN1CCN(C(c2ccccc2)c2ccccc2)CC1 [Example 19] | 78 | 460 |  |
| CCNS(=O)(=O)CCCCCCCCN1CCN(C(c2ccc(F)cc2)c2ccccn2)CC1 (stereo not shown) [Example 34] | 84.8 | 330 |  |
| CN1CCC(=C2c3ccccc3CC(=O)c3sccc32)CC1 [ketotifen, reference compound] |  |  | inhibition in vivo at 2 mg/kg ([2]; Rattus norvegicus, po, 1 h, read-out: % suppression of rat PCA): 47.4 to 73.6%; mouse acute toxicity (lethal dose) (male ICR mice): 500 mg/kg |
| CN(C)S(=O)(=O)CCCCCCN1CCN(C(c2ccc(F)cc2)c2ccccn2)CC1 (stereo not shown) [Example 82] | 86.8 | 790 |  |
| CC(C)NS(=O)(=O)CCCCCN1CCN(C(c2ccccc2)c2ccc(Cl)cc2)CC1 (stereo not shown) [Example 110] | 88.3 | 570 |  |
| C[C@@H]1C[C@H]2[C@@H]3CCC4=CC(=O)C=C[C@]4(C)[C@@]3(F)[C@@H](O)C[C@]2(C)[C@@]1(O)C(=O)CO [dexamethasone, reference compound] |  |  | inhibition in vivo at 0.1 mg/kg ([1]; ip, 1 h, 0.1 mg/kg (i.p.), read-out: immediate edema (1 hr) suppression (%)): 32.4%; inhibition in vivo at 1 mg/kg ([1]; ip, 1 h, dexamethasone 1.0 mg/kg, (i.p.) printed only at the 0.1 line, read-out: immediate edema (1 hr) suppression (%)): 32.4%; inhibition in vivo at 3 mg/kg ([1]; ip, 1 h, dexamethasone 3.0 mg/kg, (i.p.) printed only at the 0.1 line, read-out: immediate edema (1 hr) suppression (%)): 11.8%; inhibition in vivo at 0.1 mg/kg ([1]; ip, 24 h, 0.1 mg/kg (i.p.), read-out: late edema (24 hr) suppression (%)): 34.3%; inhibition in vivo at 1 mg/kg ([1]; ip, 24 h, dexamethasone 1.0 mg/kg, (i.p.) printed only at the 0.1 line, read-out: late edema (24 hr) suppression (%)): 42.9%; inhibition in vivo at 3 mg/kg ([1]; ip, 24 h, dexamethasone 3.0 mg/kg, (i.p.) printed only at the 0.1 line, read-out: late edema (24 hr) suppression (%)): 45.7%; suppression of the late allergic reaction (in words) [1]: showed the strong activity of suppressing the late allergic reaction |
| O=S(=O)(CCCCCCN1CCN(C(c2ccccc2)c2ccccc2)CC1)NC1CCCC1 [Example 141] | 87.4 | 210 |  |
| CNS(=O)(=O)CCCCCN1CCN(C(c2ccccc2)c2ccc(Cl)cc2)CC1 (stereo not shown) [Example 106] | 90.3 | 400 |  |
| O=S(=O)(CCCCCCN1CCN(C(c2ccccc2)c2ccccc2)CC1)NC1CC1 [Example 126] | 80.8 | 300 |  |
| O=S(=O)(CCCCCN1CCN(C(c2ccccc2)c2ccc(Cl)cc2)CC1)NC1CCC1 (stereo not shown) [Example 127] | 90.7 | 410 |  |
| O=S(=O)(CCCCCCN1CCN(C(c2ccccc2)c2ccccn2)CC1)NC1CC1 (stereo not shown) [Example 123] | 83.5 | 330 |  |
| O=S(=O)(CCCCCN1CCN(C(c2ccccc2)c2ccc(Cl)cc2)CC1)NC1CC1 (stereo not shown) [Example 114] | 83.5 | 560 |  |
| CCCNS(=O)(=O)CCCCCCN1CCN(C(c2ccccc2)c2ccc(Cl)cc2)CC1 (stereo not shown) [Example 36] | 77.5 | 560 |  |
| O=S(=O)(CCCCCCCCCCN1CCN(C(c2ccc(F)cc2)c2ccccn2)CC1)NC1CC1 (stereo not shown) [Example 58] | 76.5 | 350 |  |
| O=S(=O)(CCCCN1CCN(C(c2ccccc2)c2ccc(Cl)cc2)CC1)NC1CC1 (stereo not shown) [Example 113] | 87.5 | 710 |  |
| O=S(=O)(CCCCCCCCN1CCN(C(c2ccc(F)cc2)c2ccccn2)CC1)NC1CC1 (stereo not shown) [Example 57] | 90.6 | 390 | inhibition in vivo at 1 mg/kg [1, 7]: 31.6%; inhibition in vivo at 0.1 mg/kg [1, 8]: 7.7%; inhibition in vivo at 1 mg/kg [1, 9]: 46.2%; suppression of the late allergic reaction (in words) [1]: showed strong activity of suppressing the late allergic reaction |
